Results: patent US20250236616A1, “IMMUNOMODULATING AZALIDES” (Zoetis Services LLC, priority 2021, published 2025)

Key:
Format in all cases: cell-based
TNF-α = assay: Whole bovine blood assay, LPS-induced TNF-α; details: fresh whole bovine blood, LPS stimulant; top drug concentration 250 μM
In short: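 Fresh heparinized bovine whole blood was preincubated with compound 4 h at 37 °C, then stimulated with LPS (final 1 μg/mL) for 18 h at 37 °C. Plasma TNF-α was quantified by MSD U-Plex chemiluminescent immunoassay, normalized to total protein (BCA), and IC50 taken for LPS-induced TNF-α inhibition.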

IL-1β = assay: Whole bovine blood assay, LPS-induced IL-1β (inhibition / overstimulation); details: drug concentration giving overstimulation (OS) of LPS-induced IL-1β, top concentration 250 μM
In short: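 Fresh heparinized bovine whole blood was preincubated with compound at varying concentrations for 4 h at 37 °C, then stimulated with 1 μg/mL LPS for 18 h. Plasma IL-1β was measured by MSD chemiluminescent immunoassay and normalized to total protein. Values cover inhibition and concentration-dependent overstimulation.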

IL-6 = assay: Whole bovine blood assay, LPS-induced IL-6; details: fresh whole bovine blood, LPS stimulant; top drug concentration 250 μM

SMILES | IC50 (TNF-α) | minimal effective concentration (IL-1β) | IC50 (IL-6)
CC[C@H]1OC(=O)[C@H](C)[C@@H](O[C@H]2C[C@@](C)(OC)[C@](O)(CN3CCSCC3)[C@H](C)O2)[C@H](C)[C@@H](O[C@@H]2O[C@H](C)C[C@H](N(C)S(=O)(=O)c3ccc(Cl)cc3)[C@H]2O)[C@](C)(O)C[C@@H](C)CN[C@H](C)[C@@H](O)[C@]1(C)O [Example C-6] | 6 µM | 16 µM | 32 µM
CCCNC[C@]1(O)[C@H](C)O[C@@H](O[C@H]2[C@H](C)[C@@H](O[C@@H]3O[C@H](C)C[C@H](N(C)S(=O)(=O)Nc4ccc(F)cc4)[C@H]3O)[C@](C)(O)C[C@@H](C)CN[C@H](C)[C@@H](O)[C@](C)(O)[C@@H](CC)OC(=O)[C@@H]2C)C[C@@]1(C)OC [Example B-53] | 85 µM | 16 µM | 26 µM
CC[C@H]1OC(=O)[C@H](C)[C@@H](O)[C@H](C)[C@@H](O[C@@H]2O[C@H](C)C[C@H](N(C)S(=O)(=O)c3cccs3)[C@H]2Oc2ccc(F)cc2)[C@](C)(O)C[C@@H](C)CN[C@H](C)[C@@H](O)[C@]1(C)O [Example A-22] | 30 µM | 16 µM | 22 µM
CCCNC[C@]1(O)[C@H](C)O[C@@H](O[C@H]2[C@H](C)[C@@H](O[C@@H]3O[C@H](C)C[C@H](N(C)S(=O)(=O)c4ncn(C)c4Cl)[C@H]3Oc3ccc(OC)cc3)[C@](C)(O)C[C@@H](C)CN[C@H](C)[C@@H](O)[C@](C)(O)[C@@H](CC)OC(=O)[C@@H]2C)C[C@@]1(C)OC [Example B-111] | > 250 µM | 17 µM | 141 µM
CCCNC[C@]1(O)[C@H](C)O[C@@H](O[C@H]2[C@H](C)[C@@H](O[C@@H]3O[C@H](C)C[C@H](N(Cc4ccccc4)S(=O)(=O)c4ccccc4)[C@H]3O)[C@](C)(O)C[C@@H](C)CN[C@H](C)[C@@H](O)[C@](C)(O)[C@@H](CC)OC(=O)[C@@H]2C)C[C@@]1(C)OC [Example B-145] | 8 µM | 2 µM | 6 µM
CCCNC[C@]1(O)[C@H](C)O[C@@H](O[C@H]2[C@H](C)[C@@H](O[C@@H]3O[C@H](C)C[C@H]4[C@H]3OS(=O)(=O)N4C)[C@](C)(O)C[C@@H](C)CN[C@H](C)[C@@H](O)[C@](C)(O)[C@@H](CC)OC(=O)[C@@H]2C)C[C@@]1(C)OC [Example D-1] | 5 µM | 16 µM | 27 µM
CCCNC[C@]1(O)[C@H](C)O[C@@H](O[C@H]2[C@H](C)[C@@H](O[C@@H]3O[C@H](C)C[C@H](N(Cc4ccccc4)S(=O)(=O)c4ccc(OC)cc4)[C@H]3O)[C@](C)(O)C[C@@H](C)CN[C@H](C)[C@@H](O)[C@](C)(O)[C@@H](CC)OC(=O)[C@@H]2C)C[C@@]1(C)OC [Example B-144] | 9 µM | 2 µM | 10 µM
CC[C@H]1OC(=O)[C@H](C)[C@@H](O[C@H]2C[C@@](C)(OC)[C@](O)(CNC)[C@H](C)O2)[C@H](C)[C@@H](O[C@@H]2O[C@H](C)C[C@H](N(C)S(=O)(=O)Nc3ccc(C(F)(F)F)cc3)[C@H]2O)[C@](C)(O)C[C@@H](C)CN[C@H](C)[C@@H](O)[C@]1(C)O [Example B-76] | > 250 µM | >250 µM | > 250 µM
CCCNC[C@]1(O)[C@H](C)O[C@@H](O[C@H]2[C@H](C)[C@@H](O[C@@H]3O[C@H](C)C[C@H](N(C)S(=O)(=O)c4ccccc4)[C@H]3Oc3ccc(F)cc3)[C@](C)(O)C[C@@H](C)CN[C@H](C)[C@@H](O)[C@](C)(O)[C@@H](CC)OC(=O)[C@@H]2C)C[C@@]1(C)OC [Example B-109] | 9 µM | 3 µM | 10 µM
CCCNC[C@]1(O)[C@H](C)O[C@@H](O[C@H]2[C@H](C)[C@@H](O[C@@H]3O[C@H](C)C[C@H](N(Cc4ccccc4)S(=O)(=O)c4nccn4C)[C@H]3O)[C@](C)(O)C[C@@H](C)CN[C@H](C)[C@@H](O)[C@](C)(O)[C@@H](CC)OC(=O)[C@@H]2C)C[C@@]1(C)OC [Example B-143] | 7 µM | 2 µM | 8 µM
CC[C@H]1OC(=O)[C@H](C)[C@@H](O[C@H]2C[C@@](C)(OC)[C@](O)(CN3CCCCC3)[C@H](C)O2)[C@H](C)[C@@H](O[C@@H]2O[C@H](C)C[C@H](N(C)S(=O)(=O)c3ccccc3)[C@H]2Oc2ccccc2)[C@](C)(O)C[C@@H](C)CN[C@H](C)[C@@H](O)[C@]1(C)O [Example C-53] | 2 µM | 6 µM | 2 µM
CC[C@H]1OC(=O)[C@H](C)[C@@H](O[C@H]2C[C@@](C)(OC)[C@](O)(CNCCN(C)C)[C@H](C)O2)[C@H](C)[C@@H](O[C@@H]2O[C@H](C)C[C@H](N(C)S(=O)(=O)Nc3ccc(C(F)(F)F)cc3)[C@H]2O)[C@](C)(O)C[C@@H](C)CN[C@H](C)[C@@H](O)[C@]1(C)O [Example B-82] | 71 µM | >250 µM | > 250 µM
CCCNC[C@]1(O)[C@H](C)O[C@@H](O[C@H]2[C@H](C)[C@@H](O[C@@H]3O[C@H](C)C[C@H](N(C)S(=O)(=O)c4nccn4C)[C@H]3Oc3ccc(Cl)cc3)[C@](C)(O)C[C@@H](C)CN[C@H](C)[C@@H](O)[C@](C)(O)[C@@H](CC)OC(=O)[C@@H]2C)C[C@@]1(C)OC [Example B-136] | 8 µM | 6 µM | 9 µM
CC[C@H]1OC(=O)[C@H](C)[C@@H](O[C@H]2C[C@@](C)(OC)[C@](O)(CNCCN3CCCC3)[C@H](C)O2)[C@H](C)[C@@H](O[C@@H]2O[C@H](C)C[C@H](N(C)S(=O)(=O)Nc3ccc(C(F)(F)F)cc3)[C@H]2O)[C@](C)(O)C[C@@H](C)CN[C@H](C)[C@@H](O)[C@]1(C)O [Example B-68] | 5 µM | 16 µM | 25 µM
CCCNC[C@]1(O)[C@H](C)O[C@@H](O[C@H]2[C@H](C)[C@@H](O[C@@H]3O[C@H](C)C[C@H](N(C)S(=O)(=O)N4CCc5ccccc5C4)[C@H]3O)[C@](C)(O)C[C@@H](C)CN[C@H](C)[C@@H](O)[C@](C)(O)[C@@H](CC)OC(=O)[C@@H]2C)C[C@@]1(C)OC [Example B-42] | 13 µM | 2 µM | 8 µM
CCCNC[C@]1(O)[C@H](C)O[C@@H](O[C@H]2[C@H](C)[C@@H](O[C@@H]3O[C@H](C)C[C@H](N(C)S(=O)(=O)c4ccc(Br)cc4)[C@H]3Oc3ccc(OC)cc3)[C@](C)(O)C[C@@H](C)CN[C@H](C)[C@@H](O)[C@](C)(O)[C@@H](CC)OC(=O)[C@@H]2C)C[C@@]1(C)OC [Example B-104] | 15 µM | 3 µM | 7 µM
CC[C@H]1OC(=O)[C@H](C)[C@@H](O[C@H]2C[C@@](C)(OC)[C@](O)(CNCCN(C)C)[C@H](C)O2)[C@H](C)[C@@H](O[C@@H]2O[C@H](C)C[C@H](N(C)S(=O)(=O)c3ccc(Cl)cc3)[C@H]2O)[C@](C)(O)C[C@@H](C)CN[C@H](C)[C@@H](O)[C@]1(C)O [Example B-35] | > 250 µM | 16 µM | 54 µM
CCCNC[C@]1(O)[C@H](C)O[C@@H](O[C@H]2[C@H](C)[C@@H](O[C@@H]3O[C@H](C)C[C@H](N(C)S(=O)(=O)N4CCCCC4)[C@H]3O)[C@](C)(O)C[C@@H](C)CN[C@H](C)[C@@H](O)[C@](C)(O)[C@@H](CC)OC(=O)[C@@H]2C)C[C@@]1(C)OC [Example B-47] | 13 µM | 40 µM | 24 µM
CCCNC[C@]1(O)[C@H](C)O[C@@H](O[C@H]2[C@H](C)[C@@H](O[C@@H]3O[C@H](C)C[C@H](N(C)S(=O)(=O)c4nccn4C)[C@H]3Oc3ccccn3)[C@](C)(O)C[C@@H](C)CN[C@H](C)[C@@H](O)[C@](C)(O)[C@@H](CC)OC(=O)[C@@H]2C)C[C@@]1(C)OC [Example B-131] | 28 µM | 6 µM | 17 µM
CCCNC[C@]1(O)[C@H](C)O[C@@H](O[C@H]2[C@H](C)[C@@H](O[C@@H]3O[C@H](C)C[C@H](N(Cc4ccc(OC)cc4)S(=O)(=O)c4nccn4C)[C@H]3O)[C@](C)(O)C[C@@H](C)CN[C@H](C)[C@@H](O)[C@](C)(O)[C@@H](CC)OC(=O)[C@@H]2C)C[C@@]1(C)OC [Example B-146] | 10 µM | 2 µM | 10 µM
CC[C@H]1OC(=O)[C@H](C)[C@@H](O[C@H]2C[C@@](C)(OC)[C@](O)(CN3CCCCC3)[C@H](C)O2)[C@H](C)[C@@H](O[C@@H]2O[C@H](C)C[C@H](N(C)S(=O)(=O)c3ccccc3)[C@H]2Oc2ccnc(F)c2)[C@](C)(O)C[C@@H](C)CN[C@H](C)[C@@H](O)[C@]1(C)O [Example C-55] | 6 µM | 6 µM | 9 µM
CC[C@H]1OC(=O)[C@H](C)[C@@H](O)[C@H](C)[C@@H](O[C@@H]2O[C@H](C)C[C@H](N(C)S(=O)(=O)c3nccn3C)[C@H]2Oc2ccc(F)c(C(F)(F)F)c2)[C@](C)(O)C[C@@H](C)CN[C@H](C)[C@@H](O)[C@]1(C)O [Example A-34] | 205 µM | 40 µM | 59 µM
CC[C@H]1OC(=O)[C@H](C)[C@@H](O[C@H]2C[C@@](C)(OC)[C@](O)(CN3CCCCC3)[C@H](C)O2)[C@H](C)[C@@H](O[C@@H]2O[C@H](C)C[C@H](N(C)S(=O)(=O)c3ccccc3)[C@H]2Oc2ccc(Cl)cn2)[C@](C)(O)C[C@@H](C)CN[C@H](C)[C@@H](O)[C@]1(C)O [Example C-48] | 4 µM | 6 µM | 6 µM
